Measurements from article PMC11944515, “Host-Mediated Antimicrobial Effects and NLRP3 Inflammasome Modulation by Caulerpin and Its Derivatives in Macrophage Models of Mycobacterial Infections” (Microorganisms, 2025).
Like-named read-outs stand apart in the source and are kept apart here.

Tests used:
[1] = tested on: Mycobacterium smegmatis mc2155; assay: M. smegmatis susceptibility by CFU enumeration; format: cell-based; conditions: 24 h incubation, CFU
RAW 264.7 cells = assay: Direct effects on RAW 264.7 cell viability (MTT); format: cell-based, murine
Protocol: The direct effects of CP and its analogues on RAW 264.7 viability were evaluated using the MTT method. RAW 264.7 cells were seeded at 1 × 10^4 cells/well (for 24 h incubation) and 5 × 10^3 cells/well (for 48 h incubation) and incubated overnight to allow adhesion. The culture medium was carefully aspirated and replaced with 100 μL DMEM plus 100 μL of test compound solutions, yielding final concentrations ranging from 3.25 to 30 µM (DMSO 1%, v/v). After 24 or 48 h of exposure to test compounds, cells were incubated with MTT (0.5 mg/mL) for 3 h. The resulting formazan crystals were dried, dissolved in DMSO, and absorbance was measured at 570 nm using a microplate reader (EL800, BioTek, Winooski, VT, USA). The precipitated purple formazan crystals were directly proportional to the number of metabolically active viable cells. The cell viability was then calculated as: Cell viability (%) = (Sample absorbance/Control absorbance) × 100. Data were expressed as mean of cell viability ± standard error of the mean from three to four independent experiments performed in triplicate.

Artemia salina = Artemia salina toxicity test; conditions: 24 h; for effect on A. salina nauplii survival: 30 to 120 µM; for IC50: Artemia salina, estimated
Protocol: Artemia salina (brine shrimp) survival was determined after incubation with CP and its analogues following the method described by Magalhães et al.. A. salina cysts were purchased from a local aquarium store and hatched (0.5 g cysts/L) in modified artificial seawater (35 g/L sea salt) supplemented with dried yeast (6 mg/L). Aeration was provided using an aquarium air pump connected to a line extending to the bottom of the hatching vessel. After 2 days incubation (in a 23–25 °C room), nauplii were collected using a Pasteur pipette after attracting the organisms to one side of the vessel with a light source. Test compounds were serially diluted 2-fold (ranging from 30 to 120 µM) in 96-well microplates containing 100 µL of 0.9% NaCl solution with dried yeast (6 mg/L). All experiments were performed in quadruplicate with a final DMSO concentration of 2.5%. Vehicle control wells (with 2.5% DMSO) were included in the experiment. A suspension containing 8–12 nauplii in 100 µL was added to each well, and the plates were incubated at 23–25 °C for 24 h. The number of live and dead (non-motile) nauplii in each well was then counted under a microscope. Nauplii were considered dead if they remained immobile for 10 s under light exposure. The survival percentage for each test group was calculated relative to the control group (2.5% DMSO), which was set as 100%.

HepG2 cells = tested on: HepG2 cells; design: method as in PMID 32579063; conditions: 15.80 to 500 µg/mL over 24 h; cited from earlier work
IL-1β = IL-1β production in M. smegmatis-infected RAW 264.7 cells (ELISA); format: cell-based, murine; conditions: 15 μM, 24 h, M. smegmatis MOI 1:1, vs infected control
Protocol: (§1) IL-1β, IL-10, and TNF-α levels in the culture supernatant were determined by sandwich enzyme-linked immunosorbent assay as per the manufacturer’s instructions. Optical density was read at 450 nm using a microplate spectrophotometer (microplate reader EL800, BioTek, Winooski, VT, USA).

TNF-α = TNF-α production in M. smegmatis-infected RAW 264.7 cells (ELISA); format: cell-based, murine; conditions: 15 μM, 24 h, M. smegmatis MOI 1:1, vs infected control
Protocol: as §1

NLRP3 inflammasome = assay: NLRP3 evaluation by flow cytometry in M. smegmatis-infected RAW 264.7 cells; format: cell-based, murine; conditions: 15 μM, 24 h
Protocol: Cells were placed in a 96-well plate (U bottom) 24 h after treatment in culture. Then, cells were fixed by Cytofix (BD Cytofix™, Franklin Lakes, NJ, USA) and permeabilized by Perm Buffer (BD Phosflow™, San Diego, CA, USA) for 30 min each. Cells were subsequently labeled with an unconjugated anti-NLRP3 antibody, according to the manufacturer’s instructions (BD Biosciences, San Diego, CA, USA). Finally, anti-rat IgG2a (PE) was added for NLRP3 analysis and cells were suspended in PBS and evaluated in a BD Accuri C6 Plus flow cytometer.
First, macrophages were visualized using size (FSC) and granularity (SSC) parameters, and a gate was performed in the cell population. The macrophages were then analyzed by measuring the median fluorescence intensity (MFI) corresponding to antibody labeling. MFI data were normalized to the control group, which was set to 100%.

[2] = tested on: IL-8, IL-6, and TNF-α cytokines; design: method as in PMID 34884957; conditions: pretreatment, compared with untreated control; cited from earlier work
[3] = tested on: IFN-γ, IL-6, and TNF-α levels; design: method as in PMID 30205459; conditions: doses of 40 mg/kg, murine model of peritonitis and ulcerative colitis; cited from earlier work
Vero E6 cells = conditions: cited from earlier work

Structure (SMILES) | inhibitory concentration against M. smegmatis [1] | effect on RAW 264.7 cell viability (RAW 264.7 cells; 24 h incubation, 3.25 to 30 µM) | effect on RAW 264.7 cell viability (RAW 264.7 cells; 48 h incubation) | effect on A. salina nauplii survival (Artemia salina) | IC50 (Artemia salina) [µM] | anticancer activity in HepG2 cells (HepG2 cells) | reduction in IL-1β production (IL-1β) [%] | reduction in TNF-α production (TNF-α) [%] | reduction of NLRP3 expression (MFI) (NLRP3 inflammasome) [%] | effect on IL-8, IL-6, and TNF-α expression [2] | effect on IFN-γ, IL-6, and TNF-α levels [3] | effect on Vero E6 viability (Vero E6 cells; 589.3 µg/mL) | effect on Vero E6 viability (Vero E6 cells; 50 to 1000 µM for 72 h)
O=C(O)C1=Cc2c([nH]c3ccccc23)C(C(=O)O)=Cc2c1[nH]c1ccccc21 [CA, caulerpinic acid] | higher than 30 μM | did not affect viability at any of the concentrations tested | did not affect cell viability at any concentration evaluated | did not affect nauplii survival rates | > 120 | – | – | – | – | – | – | – | –
COC(=O)/C1=C/c2c([nH]c3ccccc23)/C(C(=O)OC)=C\c2c1[nH]c1ccccc21 [CP, Caulerpin] | higher than 15 μM | affected cell viability at the concentration of 30 μM | affected cell viability at the 2 highest concentrations tested, 15 and 30 μM | did not affect nauplii survival rates | > 120 | exhibited anticancer activity in HepG2 cells | 69.35 | 34.07 | 29.12 | reduced expression of IL-8, IL-6, and TNF-α cytokines | reduced IFN-γ, IL-6, and TNF-α levels | maintained their viability | no effect on Vero E6 viability
CCOC(=O)/C1=C/c2c([nH]c3ccccc23)/C(C(=O)OCC)=C\c2c1[nH]c1ccccc21 [DE, (6E,13E)-diethyl 5,12-dihydrocycloocta[1,2-b:5,6-b′]diindole-6,13-dicarboxylate] | higher than 15 μM | affected cell viability at the concentration of 30 μM | did not affect cell viability at any concentration evaluated | did not affect nauplii survival rates | > 120 | – | 59.82 | 56.94 | 39.81 | – | – | – | –
